Reference: patent publication US11447504B2, “Macrocyclic chlorine substituted indole derivatives” (Bayer Aktiengesellschaft, priority 2017, dated 2022)
Structures can show the parent of a compound that is named as a salt. Where two headings read alike, the source gives them in different places.

Legend:
[1] = tested on: SUDHL5; assay: Induction of caspase-3/7 activity (Assay 4), SUDHL5; assay type: cell-based; conditions: SUDHL5 cells
Outline: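 DLBCL cells treated with compounds for 3 hours at 37° C. Caspase-3/7 activity measured by Caspase-Glo 3/7 luminescence, with medium-only background subtracted.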

[2] = tested on: SUDHL5; assay: Antiproliferation assay 7, SUDHL5; assay type: cell-based; conditions: SUDHL5 cells, CellTiter-Glo, read-out: Antiproli SUDHL5 IC50 (median)
Outline: (§1)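 CellTiter-Glo luminescence readout; 72 h compound exposure, 37° C, humidified. Day 0 reference plate read at plating for time-zero baseline.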

[3] = tested on: SUDHL10; assay: Antiproliferation assay 7, SUDHL10; assay type: cell-based; conditions: Homo sapiens, SU-DHL10, 72 h, SUDHL10 cells, CellTiter-Glo, read-out: Antiproli SUDHL10 IC50 (median)
Experimental: Assessment of the Anti-Proliferative Effect of Compounds in Different Cell Lines
The impact of compounds on the proliferation of different cell lines was assessed using the CellTiter-Glo® Luminescent Cell Viability reagent from Promega (G7573).
In parallel, cells were plated in a reference (day 0) plate for time zero determination.
Rim wells were excluded. The cells were incubated for 72 hours in a humidified incubator at 37° C. The day 0 plate was measured by adding 30 μL/well of CTG solution (CellTiter-Glo® Luminescent Cell Viability reagent, Promega G7573) to time zero wells in the reference plate followed by a 10 minutes incubation and luminescence reading at 0.1 ms. using the PHERAstar FS microplate reader (BMG Labtech).
After 72 hours incubation, the treated plates were measured in the same way as the day 0 plate mentioned above.

[4] = tested on: SUDHL10; assay: Induction of caspase-3/7 activity (Assay 4), SUDHL10; assay type: cell-based; conditions: SUDHL10 cells
Outline: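 Luminescent Caspase-Glo 3/7 read-out after a 3 h, 37 °C compound exposure of the DLBCL line SUDHL10. Values are background-corrected using medium-only wells.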

[5] = tested on: SUDHL5; assay: Induction of cytotoxicity (Assay 6), SUDHL5
Experimental: Assay 6 Induction of Cytotoxicity Upon Treatment of Cells with Selected Compounds
Therefore, cytotoxicity assays were run in parallel in SUDHL5 and SUDHL10 cells.
The different cell lines were plated in culture medium (RPMI 1640 [GIBCO #22400-089]supplemented with 10% Fetal Bovine Serum) at a density of 3,300 cells in 30 μL/well in a sterile, solid black, flat bottom, polystyrene, TC-treated 384-well microplate (Corning #3571) using Multidrop Combi Reagent Dispenser. As a control, medium without cells was also added to the plate. Cells were incubated in a humidified incubator at 37° C. overnight. […] Rim wells were excluded. The cells were incubated for 5 hours in a humidified incubator at 37° C. After this incubation, 30 μL of CellTiter-Glo® Luminescent Cell Viability reagent (Promega, G7573) was added to each well using the Multidrop Combi Reagent Dispenser, followed by 15 minutes incubation on a shaker at room temperature. Finally, luminescence was read at 0.1 ms, with a gain of 3000 using the PHERAstar FS microplate reader (BMG Labtech).

[6] = tested on: AMO-1; assay: Antiproliferation assay 7, AMO-1; assay type: cell-based; conditions: AMO-1 cells, CellTiter-Glo, read-out: Antiproli AMO-1 IC50 median
Outline: as §1

[7] = molecular target: MCL-1 (Homo sapiens (Human), UniProt Q07820, K194A/K197A/R201A); assay: Protein-protein interaction assay MCL-1/Noxa BH3 peptide (MCL-1 Assay, TR-FRET); assay type: binding; conditions: read-out: MCL-1 Assay IC50 (median)
Experimental: The dose-dependent inhibition by the compounds described in this invention of the interaction between MCL-1 and the BH3 domain of Noxa (both human) was determined using a steady state binding competition assay with time-resolved fluorescence energy transfer (TR-FRET) readout. […] The MBP-MCL-1 was purchased from Beryllium (Bedford, Mass., USA). The expression and purification of this protein construct has been described elsewhere (DOI:10.1371/journal.pone.0125010). The Noxa BH3-derived peptide can be obtained from e.g. Biosyntan (Berlin, Germany).
For that, 100-fold concentrated DMSO solutions were prepared by serial dilutions (1:3.4) of a 2 mM stock solution in a clear, 384-well microtiter plate (Greiner Bio-One, Frickenhausen, Germany). From there, 50 nl were transferred in a dark test plate (Greiner Bio-One, Frickenhausen, Germany). […] This was followed by a 10-minute incubation step at 22° C. for pre-equilibration of the putative complex between MBP-MCL-1 and the compounds.
The mixture was incubated in the dark for one hour at 22° C. and then overnight at 4° C.
The resulting data (ratio) were normalized, taking 0% inhibition as the mean value of control measurements (usually 32 data points) where all reagents were included. In this case 50 nl DMSO were used instead of compounds. […] IC50 values were determined by regression analysis based on a 4 parameter equation (minimum, maximum, IC50, Hill; Y=Max+(Min−Max)/(1+(X/IC50)^Hill) using the Screener Software (Genedata).

[8] = tested on: MV-4-11; assay: Antiproliferation assay 7, MV-4-11; assay type: cell-based; conditions: MV-4-11 cells, CellTiter-Glo, read-out: Antiproli MV-4-11 IC50 median
Outline: as §1

[9] = tested on: SUDHL10; assay: Induction of cytotoxicity (Assay 6), SUDHL10
[10] = tested on: HMC-1-8; assay: Antiproliferation assay 7, HMC-1-8; assay type: cell-based; conditions: HMC-1-8 cells, CellTiter-Glo, read-out: Antiproli HMC-1-8 IC50 median
Outline: as §1

[11] = Homo sapiens, SU-DHL-5, 3 h, Caspase-Glo 3/7, read-out: Caspase SUDHL5 EC50 (median)
[12] = Homo sapiens, SU-DHL10, 3 h, Caspase-Glo 3/7, read-out: Caspase SUDHL10 EC50 (median)
[13] = Homo sapiens, SU-DHL-5, 5 h, read-out: Cytotox SUDHL5 IC50 (median), SUDHL5 cells, 5 hours, CellTiter-Glo
[14] = Homo sapiens, SU-DHL10, 5 h, read-out: Cytotox SUDHL10 IC50 (median), SUDHL10 cells, 5 hours, CellTiter-Glo
[15] = 3 hours, Caspase-Glo 3/7, read-out: Caspase SUDHL5 EC50 (median)
[16] = read-out: Cytotox SUDHL10 IC50 (median), SUDHL10 cells, 5 hours, CellTiter-Glo
[17] = 3 hours, Caspase-Glo 3/7, read-out: Caspase SUDHL10 EC50 (median)
[18] = read-out: Cytotox SUDHL5 IC50 (median), SUDHL5 cells, 5 hours, CellTiter-Glo

MCL-1, sequence (Q07820 whole entry K194A/K197A/R201A, looked up, the tested form may be a part): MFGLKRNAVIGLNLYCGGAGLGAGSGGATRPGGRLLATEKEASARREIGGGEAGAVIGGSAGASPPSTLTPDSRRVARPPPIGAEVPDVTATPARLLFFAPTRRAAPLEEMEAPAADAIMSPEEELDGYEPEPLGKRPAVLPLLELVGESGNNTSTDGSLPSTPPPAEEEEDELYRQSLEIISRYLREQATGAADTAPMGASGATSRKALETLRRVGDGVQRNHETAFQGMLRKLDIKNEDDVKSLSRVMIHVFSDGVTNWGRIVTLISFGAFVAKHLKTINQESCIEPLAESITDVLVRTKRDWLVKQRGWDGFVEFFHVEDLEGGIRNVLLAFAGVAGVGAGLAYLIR

EC50 [1, 11] [µM] | IC50 ([2]; Homo sapiens, SU-DHL-5, 72 h) [µM] | IC50 [3] [µM] | EC50 [4, 12] [µM] | IC50 [7] [µM] | IC50 ([8]; Homo sapiens, MV4-11, 72 h) [µM] | IC50 ([8]; 72 hours) [µM] | EC50 [1, 15] [µM] | IC50 ([2]; 72 hours) [µM] | EC50 [4, 17] [µM] | Structure (SMILES) | IC50 [5, 13] [µM] | IC50 ([6]; Homo sapiens, AMO1, 72 h) [µM] | IC50 [9, 14] [µM] | IC50 ([10]; 72 h) [µM] | IC50 ([6]; 72 hours) [µM] | IC50 [9, 16] [µM] | IC50 [5, 18] [µM] | IC50 ([10]; 72 hours) [µM]
2.9 | 5.7 | 5.7 | 5.5 |  |  |  |  |  |  | Cc1nn(C)c2c1-c1c(Cl)ccc3c(CCCOc4cccc5ccccc45)c(C(=O)O)n(c13)C/C=C\COC2 (racemic) [Example 1, (rac)-(11Z)-4-chloro-1,3-dimethyl-7-[3-(naphthalen-1-yloxy)propyl]-1,10,13,15-tetrahydropyrazolo[4′,3′:9,10][1,6]oxazacycloundecino[8,7,6-hi]indole-8-carboxylic Acid] | 2.9 |  |  |  |  |  |  | 
0.59 | 0.57 |  | 0.59 | 0.0017 | 0.918 |  |  |  |  | Cc1c2c(nn1CCCN1CCN(C)CC1)COCCCCn1c(C(=O)O)c(CCCOc3cccc4ccccc34)c3ccc(Cl)c-2c31 (racemic) [Example 48, (rac)-4-chloro-3-methyl-2-[3-(4-methylpiperazin-1-yl)propyl]-7-{3-[(naphthalen-1-yl)oxy]propyl}-2,10,11,12,13,15-hexahydropyrazolo[4′,3′:9,10][1,6]oxazacycloundecino[8,7,6-hi]indole-8-carboxylic Acid] | 0.59 | 1.49 | 1 |  |  |  |  | 
0.4 | 0.41 |  | 0.6 | 0.002 |  |  |  |  |  | CCc1c2c(nn1C)N(CCC1CCOCC1)CCCCCn1c(C(=O)O)c(CCCOc3cccc4cc(F)ccc34)c3ccc(Cl)c-2c31 (racemic) [Example 80, (rac)-4-chloro-3-ethyl-7-{3-[(6-fluoronaphthalen-1-yl)oxy]propyl}-2-methyl-15-[2-(oxan-4-yl)ethyl]-10,11,12,13,14,15-hexahydro-2H-pyrazolo[4′,3′:4,5][1,6]diazacycloundecino[3,2,1-hi]indole-8-carboxylic Acid] | 0.5 | 0.27 | 0.53 | 4 |  |  |  | 
 |  |  |  |  |  | 1.38 | 0.62 | 0.95 | 1.6 | CCc1nn(CCN2CCOCC2)c2c1-c1c(Cl)ccc3c(CCCOc4cccc5ccccc45)c(C(=O)O)n(c13)C/C=C\CN(C)C2 (single isomer, unassigned; enantiomer 1) [Example 43, (11Z)-4-chloro-3-ethyl-14-methyl-1-[2-(morpholin-4-yl)ethyl]-7-{3-[(naphthalen-1-yl)oxy]propyl}-10,13,14,15-tetrahydro-1H-pyrazolo[3′,4′:8,9][1,6]diazacycloundecino[10,11,1-hi]indole-8-carboxylic Acid-Ammonia Salt (Enantiomer 1)] |  |  |  | 2.06 | 1.13 | 1.2 | 0.7 | 
 |  |  |  |  |  | 0.49 | 0.16 | 0.2 | 0.4 | CCc1nn(CCN2CCOCC2)c2c1-c1c(Cl)ccc3c(CCCOc4cccc5ccccc45)c(C(=O)O)n(c13)CCCCN(C)C2 (single isomer, unassigned; enantiomer 1) [Example 46, 4-chloro-3-ethyl-14-methyl-1-[2-(morpholin-4-yl)ethyl]-7-{3-[(naphthalen-1-yl)oxy]propyl}-10,11,12,13,14,15-hexahydro-1H-pyrazolo[3′,4′:8,9][1,6]diazacycloundecino[10,11,1-hi]indole-8-carboxylic Acid (Enantiomer 1)] |  |  |  | 0.819 | 0.18 | 0.3 | 0.18 | 
1 | 1.3 |  | 1.3 | 0.0019 |  |  |  |  |  | Cc1c2c(nn1C)OCCCCCn1c(C(=O)O)c(CCCOc3cccc4cc(F)ccc34)c3ccc(Cl)c-2c31 (single isomer, unassigned; enantiomer 1) [Example 84, 4-chloro-7-{3-[(6-fluoronaphthalen-1-yl)oxy]propyl}-2,3-dimethyl-11,12,13,14-tetrahydro-2H,10H-pyrazolo[3′,4′:2,3][1,6]oxazacycloundecino[4,5,6-hi]indole-8-carboxylic Acid—Enantiomer 1] | 1.1 | 0.23 | 1.5 | 12 |  |  |  | 
 |  |  |  | 0.015 |  |  | 13 | 6.7 | 12 | Cc1c2c(nn1CCCN1CCN(C)CC1)COCCCCn1c(C(=O)O)c(CCCOc3cccc4ccccc34)c3ccc(Cl)c-2c31 (single isomer, unassigned; enantiomer 2) [Example 50, (−)-4-chloro-3-methyl-2-[3-(4-methylpiperazin-1-yl)propyl]-7-{3-[(naphthalen-1-yl)oxy]propyl}-2,10,11,12,13,15-hexahydropyrazolo[4′,3′:9,10][1,6]oxazacycloundecino[8,7,6-hi]indole-8-carboxylic Acid (Enantiomer 2)] |  |  |  |  | 13.3 | 8.6 | 8.4 | 12.4
 |  |  |  | 0.0017 |  |  | 0.55 |  | 3.5 | Cc1c2c(nn1C)COCC1CC1Cn1c(C(=O)O)c(CCCOc3cccc4ccccc34)c3ccc(Cl)c-2c31 (single isomer, unassigned; stereoisomer 2) [Example 66, (9aR,10aS or 9aS, 10aR)-3-chloro-4,5-dimethyl-14-{3-[(naphthalen-1-yl)oxy]propyl}-5,7,9a, 10,10a, 11-hexahydro-9H-cyclopropa[3,4]pyrazolo[4′,3′:9,10][1,6]oxazacycloundecino-[8,7,6-hi]indole-13-carboxylic Acid—Stereoisomer 2] |  |  |  |  | 1.52 | 1.4 | 0.91 | 

Structure (SMILES) | EC50 [1, 11] [µM] | IC50 ([2]; Homo sapiens, SU-DHL-5, 72 h) [µM] | IC50 [3] [µM] | EC50 [4, 12] [µM] | IC50 [7] [µM] | IC50 ([8]; Homo sapiens, MV4-11, 72 h) [µM] | IC50 ([8]; 72 hours) [µM] | EC50 [1, 15] [µM] | IC50 ([2]; 72 hours) [µM] | EC50 [4, 17] [µM] | IC50 [5, 13] [µM] | IC50 ([6]; Homo sapiens, AMO1, 72 h) [µM] | IC50 [9, 14] [µM] | IC50 ([10]; 72 h) [µM] | IC50 ([6]; 72 hours) [µM] | IC50 [9, 16] [µM] | IC50 [5, 18] [µM] | IC50 ([10]; 72 hours) [µM]
Cc1c2c(nn1C)CN(C)CCCCn1c(C(=O)O)c(CCCOc3cccc4cc(F)ccc34)c3ccc(Cl)c-2c31 (single isomer, unassigned; enantiomer 2) [Example 32, (−)-4-chloro-7-{3-[(6-fluoronaphthalen-1-yl)oxy]propyl}-2,3,14-trimethyl-10,11,12,13,14,15-hexahydro-2H-pyrazolo[3′,4′:8,9][1,6]diazacycloundecino[10,11,1-hi]indole-8-carboxylic acid-N-ethylethanamine Salt (Enantiomer 2)] |  |  |  |  | 0.026 |  | 14 | 11 | 6 | 25 |  |  |  |  | 19.6 | 14 | 9.3 | 
